Measurements: US9315806B2, “Massively parallel combinatorial genetics” (Massachusetts Institute of Technology, priority 2012, dated 2016)

Tests used:
[1] = system: E. coli NDM-1 strain; assay: microbe, parasite or virus in culture; assay type: cell-based; conditions: for MIC: Escherichia coli, NDM1STRAIN, read-out: NDM-1 MICs, Tested; for NDM-1 MICs, Tested: for piperacillin-tazobactam the piperacillin concentration
[2] = system: Klebsiella pneumoniae NDM-1 clinical isolate; conditions: original Klebsiella pneumoniae NDM-1 isolate; cited from earlier work
[3] = system: aTc-inducible pLtetO promoters; assay: aTc induction of GFP/mCherry pairwise combinations; assay type: cell-based, E. coli; conditions: DH5a colonies, increasing concentrations of aTc
Text: Next, to test gene expression, a barcoded vector library of GFP and mCherry was constructed under the control of aTc-inducible pLtetO promoters with a T1+T7 fusion terminator downstream of each ORF. Each vector contained the high-copy ColE1 origin, tetR under control of a constitutive promoter, and cat conferring chloramphenicol resistance.
An insert library was generated via PCR, creating a pairwise combinatorial set as in FIG. 5 that was then transformed into DH5a cells. Twenty-four colonies were isolated and grown in increasing concentrations of aTc along with positive and negative controls (FIG. 7).

[4] = system: yeast strains (Aβ or αSyn expression array, W303 background); assay: Cell growth and inducible amyloid toxicity of yeast model strains; assay type: cell-based; conditions: yeast strains with integrated rtTA
Text: (§1) The repetitive Aβ or αSyn expression array was integrated in yeast genome (the W303 background) and controlled by galactose induction. FIG. 28 depicts a yeast strain generated by integrating multiple tandem copies of αSyn with a galactose (Gal)-inducible promoter. In order to minimize the size of plasmid backbone for library construction, the reverse tetracycline transactivator (rtTA), part of the Tet-ON expression system (Gossen, M. et al., Science […]:1766-9 (1995)), was integrated into both yeast strains. The Tet-ON induction was tested by using different fluorescent proteins (such as eGFP and mCherry), and consistently detected robust gene activation (about 50-fold increase) with doxycycline (Dox) treatment. […] Similarly, the rtTA was successfully integrated in wild-type strain (the BY4741 background) to study longevity.

[5] = system: Tet-ON expression system (rtTA); assay: Tet-ON induction tested with fluorescent proteins (eGFP, mCherry); assay type: cell-based; conditions: yeast strains with integrated rtTA
Text: as §1

Row | Compound | MIC [1] | NDM-1 MICs, Previously Reported [2] | NDM-1 MICs, Tested ([1]; E. coli NDM-1) | further results
1 | CC1(C)S[C@@H]2[C@H](NC(=O)[C@H](N)c3ccc(O)cc3)C(=O)N2[C@H]1C(=O)O [Amoxicillin] | > 512 µg/mL | – | – | –
2 | CO/N=C(\C(=O)N[C@@H]1C(=O)N2C(C(=O)O)=C(CSc3nc(=O)c(=O)[nH]n3C)CS[C@H]12)c1csc(N)n1 [Ceftriaxone] | > 128 µg/mL | >32 µg/mL | – | –
3 | C[C@@H](O)[C@H]1C(=O)N2C(C(=O)O)=C(SCCN=CN)C[C@H]12 [Imipenem] | > 32 µg/mL | – | – | –
4 | Cc1c2c(c(O)c3c(O)cccc13)C(=O)[C@]1(O)C(O)=C(C(N)=O)C(=O)[C@@H](N(C)C)[C@@H]1C2 [aTc] | – | – | – | on/off ratios of induction [3]: 150-300 x
5 | C[C@H]1c2cccc(O)c2C(=O)C2=C(O)[C@]3(O)C(=O)C(C(N)=O)=C(O)[C@@H](N(C)C)[C@@H]3[C@@H](O)[C@@H]21 [doxycycline] | – | – | – | Effect on cell growth or inducible amyloid toxicity [4]: neither the integrated rtTA nor the Dox treatment affects cell growth or the inducible amyloid toxicity; Gene activation (Tet-ON induction) [5]: about 50 fold
6 | Colistin | – | 0.25 µg/mL | <0.125 µg/mL | –
7 | Gentamicin | – | >10 µg/mL | >256 µg/mL | –
8 | Piperacillin-Tazobactam | – | >128 µg/mL | > 256 µg/mL | NDM-1 MICs, Tested, tazobactam concentration ([1]; E. coli NDM-1, tazobactam part of piperacillin-tazobactam): 32 µg/mL
